Source: US20050070510A1, “Substituted tetracycline compounds as synergistic antifungal agents” (Paratek Pharmaceuticals, Inc., priority 2001, published 2005)

Tested on: COS-1 cells
Assay: In vitro mammalian cytotoxicity assay (Resazurin)

| Compound | In Vitro Cytotoxicity |
| --- | --- |
| CC(C)NCc1ccc(-c2ccc(O)c3c2C[C@@]2(N)C[C@@]4(N)[C@H](N(C)C)C(O)=C(C(N)=O)C(=O)[C@@]4(C#N)C(O)=C2C3=O)cc1 [OT] | * (toxicities greater than >25 μg/ml are represented by *) |
| CN(C)[C@@H]1C(O)=C(C(N)=O)C(=O)[C@@]2(C#N)C(O)=C3C(=O)c4c(O)c(C(C)(C)C)cc(-c5cnc6ccccc6c5)c4C[C@@]3(N)C[C@@]12N [OV] | * (toxicities greater than >25 μg/ml are represented by *) |
| COc1ccc(C=O)cc1-c1ccc(O)c2c1C[C@@]1(N)C[C@@]3(N)[C@H](N(C)C)C(O)=C(C(N)=O)C(=O)[C@@]3(C#N)C(O)=C1C2=O [OW] | * (toxicities greater than >25 μg/ml are represented by *) |
| CN(C)c1ccc(-c2cc(F)c(O)c3c2C[C@@]2(N)C[C@@]4(N)[C@H](N(C)C)C(O)=C(C(N)=O)C(=O)[C@@]4(C#N)C(O)=C2C3=O)cc1 [OX] | ** (toxicities less than 25 μg/mL are represented by **) |
| CN(C)c1ccc(-c2ccc3c(c2O)C(=O)C2=C(O)[C@]4(C#N)C(=O)C(C(N)=O)=C(O)[C@@H](N(C)C)[C@]4(N)[C@@H](O)[C@]2(N)[C@H]3O)cc1 [OY] | ** (toxicities less than 25 μg/mL are represented by **) |
| C=CCOC(=O)Nc1ccc(-c2ccc(O)c3c2C[C@@]2(N)C[C@@]4(N)[C@H](N(C)C)C(O)=C(C(N)=O)C(=O)[C@@]4(C#N)C(O)=C2C3=O)cc1 [OZ] | ** (toxicities less than 25 μg/mL are represented by **) |
| CN(C)[C@@H]1C(O)=C(C(N)=O)C(=O)[C@@]2(C#N)C(O)=C3C(=O)c4c(O)ccc(-c5ccc(NC(=O)C6CC6)cc5)c4C[C@@]3(N)C[C@@]12N [PB] | * (toxicities greater than >25 μg/ml are represented by *) |
| CN(C)CCNC(=O)c1ccc(-c2ccc(O)c3c2C[C@@]2(N)C[C@@]4(N)[C@H](N(C)C)C(O)=C(C(N)=O)C(=O)[C@@]4(C#N)C(O)=C2C3=O)cc1 [PC] | * (toxicities greater than >25 μg/ml are represented by *) |
| CCNC(=O)CNC(=O)c1cccc(-c2ccc(O)c3c2C[C@@]2(N)C[C@@]4(N)[C@H](N(C)C)C(O)=C(C(N)=O)C(=O)[C@@]4(C#N)C(O)=C2C3=O)c1 [PD] | * (toxicities greater than >25 μg/ml are represented by *) |
| CCc1cc(-c2ccc(N(C)C)cc2)c2c(c1O)C(=O)C1=C(O)[C@]3(C#N)C(=O)C(C(N)=O)=C(O)[C@@H](N(C)C)[C@]3(N)C[C@]1(N)C2 [PE] | ** (toxicities less than 25 μg/mL are represented by **) |
| CN(C)[C@@H]1C(O)=C(C(N)=O)C(=O)[C@@]2(C#N)C(O)=C3C(=O)c4c(O)ccc(-c5ccc(NC(=O)OC(C)(C)C)cc5)c4C[C@@]3(N)C[C@@]12N [PF] | ** (toxicities less than 25 μg/mL are represented by **) |
| CN(C)[C@@H]1C(O)=C(C(N)=O)C(=O)[C@@]2(C#N)C(O)=C3C(=O)c4c(O)ccc(-c5ccc(NC(=O)Nc6ccc(OC(F)(F)F)cc6)cc5)c4C[C@@]3(N)C[C@@]12N [PH] | * (toxicities greater than >25 μg/ml are represented by *) |
| COc1ccc(CNCc2ccc(-c3ccc(O)c4c3C[C@@]3(N)C[C@@]5(N)[C@H](N(C)C)C(O)=C(C(N)=O)C(=O)[C@@]5(C#N)C(O)=C3C4=O)cc2)cc1 [PI] | ** (toxicities less than 25 μg/mL are represented by **) |
| CN(C)[C@@H]1C(O)=C(C(N)=O)C(=O)[C@@]2(C#N)C(O)=C3C(=O)c4c(O)ccc(-c5ccc(CN6CCCC6)o5)c4C[C@@]3(N)C[C@@]12N [PJ] | * (toxicities greater than >25 μg/ml are represented by *) |
| Cc1ccc(-c2ccc(O)c3c2C[C@@]2(N)C[C@@]4(N)[C@H](N(C)C)C(O)=C(C(N)=O)C(=O)[C@@]4(C#N)C(O)=C2C3=O)cc1N [PK] | ** (toxicities less than 25 μg/mL are represented by **) |
| CN(C)[C@@H]1C(O)=C(C(N)=O)C(=O)[C@@]2(C#N)C(O)=C3C(=O)c4c(O)ccc(-c5ccc(I)c(C=O)c5)c4C[C@@]3(N)C[C@@]12N [PL] | ** (toxicities less than 25 μg/mL are represented by **) |
| CN(C)[C@@H]1C(O)=C(C(N)=O)C(=O)[C@@]2(C#N)C(O)=C3C(=O)c4c(O)ccc(-c5cc(F)cc(F)c5)c4C[C@@]3(N)C[C@@]12N [PM] | ** (toxicities less than 25 μg/mL are represented by **) |
| CN(C)[C@@H]1C(O)=C(C(N)=O)C(=O)[C@@]2(C#N)C(O)=C3C(=O)c4c(ccc(-c5ccc(C=O)c6ccccc56)c4O)[C@H](N)[C@@]3(N)[C@H](O)[C@@]12N [PN] | ** (toxicities less than 25 μg/mL are represented by **) |
| CN(C)[C@@H]1C(O)=C(C(N)=O)C(=O)[C@@]2(C#N)C(O)=C3C(=O)c4c(ccc(-c5ccc(C(=O)F)c6ccccc56)c4O)[C@H](N)[C@@]3(N)[C@H](O)[C@@]12N [PO] | ** (toxicities less than 25 μg/mL are represented by **) |

| Compound | In Vitro Cytotoxicity |
| --- | --- |
| CN(C)[C@@H]1C(O)=C(C(N)=O)C(=O)[C@@]2(C#N)C(O)=C3C(=O)c4c(ccc(-c5cccc(C(N)=O)c5)c4O)[C@H](N)[C@@]3(N)[C@H](O)[C@@]12N [PP] | ** (toxicities less than 25 μg/mL are represented by **) |
| COc1ccc(-c2ccc3c(c2O)C(=O)C2=C(O)[C@]4(C#N)C(=O)C(C(N)=O)=C(O)[C@@H](N(C)C)[C@]4(N)[C@@H](O)[C@]2(N)[C@H]3N)cc1CN1CCCC1 [PQ] | * (toxicities greater than >25 μg/ml are represented by *) |
| COc1ccc(CN2CCCC2)cc1-c1ccc2c(c1O)C(=O)C1=C(O)[C@]3(C#N)C(=O)C(C(N)=O)=C(O)[C@@H](N(C)C)[C@]3(N)[C@@H](O)[C@]1(N)[C@H]2N [PR] | * (toxicities greater than >25 μg/ml are represented by *) |
| COC(=O)c1cc(N)cc(-c2ccc(O)c3c2C[C@@]2(N)C[C@@]4(N)[C@H](N(C)C)C(O)=C(C(N)=O)C(=O)[C@@]4(C#N)C(O)=C2C3=O)c1 [PT] | * (toxicities greater than >25 μg/ml are represented by *) |
| CN(C)[C@@H]1C(O)=C(C(N)=O)C(=O)[C@@]2(C#N)C(O)=C3C(=O)c4c(O)c(-c5cccc6c5OCO6)cc(-c5ccc6c(c5)OCO6)c4[C@H](N)[C@@]3(N)[C@H](O)[C@@]12N [PU] | ** (toxicities less than 25 μg/mL are represented by **) |
| CN(C)[C@@H]1C(O)=C(C(N)=O)C(=O)[C@@]2(C#N)C(O)=C3C(=O)c4c(ccc(-c5ccc6c(c5)OCO6)c4O)[C@H](N)[C@@]3(N)[C@H](O)[C@@]12N [PV] | ** (toxicities less than 25 μg/mL are represented by **) |
| CN(C)c1cc(CCC2(O)CCCC2)c(O)c2c1C[C@@]1(N)C[C@@]3(N)[C@H](N(C)C)C(O)=C(C(N)=O)C(=O)[C@@]3(C#N)C(O)=C1C2=O [PW] | ** (toxicities less than 25 μg/mL are represented by **) |
| CN(C)[C@@H]1C(O)=C(C(N)=O)C(=O)[C@@]2(C#N)C(O)=C3C(=O)c4c(O)c(-c5ccccc5)cc(-c5ccccc5)c4[C@H](N)[C@@]3(N)[C@H](O)[C@@]12N [PX] | ** (toxicities less than 25 μg/mL are represented by **) |
| COCCOC(=O)Nc1ccc(-c2ccc(O)c3c2C[C@@]2(N)C[C@@]4(N)[C@H](N(C)C)C(O)=C(C(N)=O)C(=O)[C@@]4(C#N)C(O)=C2C3=O)cc1 [PY] | * (toxicities greater than >25 μg/ml are represented by *) |
| CN(C)[C@@H]1C(O)=C(C(N)=O)C(=O)[C@@]2(C#N)C(O)=C3C(=O)c4c(O)c(C(C)(C)C)cc(C(=O)Cl)c4C[C@@]3(N)C[C@@]12N [QA] | ** (toxicities less than 25 μg/mL are represented by **) |
| CN(C)[C@@H]1C(O)=C(C(N)=O)C(=O)[C@@]2(C#N)C(O)=C3C(=O)c4c(O)ccc(-c5ccc(F)c(F)c5)c4C[C@@]3(N)C[C@@]12N [QB] | ** (toxicities less than 25 μg/mL are represented by **) |
| CN(C)[C@@H]1C(O)=C(C(N)=O)C(=O)[C@@]2(C#N)C(O)=C3C(=O)c4c(ccc(-c5cc6ccccc6o5)c4O)[C@H](N)[C@@]3(N)[C@H](O)[C@@]12N [QC] | ** (toxicities less than 25 μg/mL are represented by **) |
| COc1ccc(-c2ccc(O)c3c2C[C@@]2(N)C[C@@]4(N)[C@H](N(C)C)C(O)=C(C(N)=O)C(=O)[C@@]4(C#N)C(O)=C2C3=O)cc1CN [QD] | * (toxicities greater than >25 μg/ml are represented by *) |
| COc1ccc(-c2ccc(O)c3c2C[C@@]2(N)C[C@@]4(N)[C@H](N(C)C)C(O)=C(C(N)=O)C(=O)[C@@]4(C#N)C(O)=C2C3=O)cc1 [QF] | ** (toxicities less than 25 μg/mL are represented by **) |
| CCOc1ccc(-c2ccc(O)c3c2C[C@@]2(N)C[C@@]4(N)[C@H](N(C)C)C(O)=C(C(N)=O)C(=O)[C@@]4(C#N)C(O)=C2C3=O)cc1CNC(=O)NC(C)(C)C [QG] | * (toxicities greater than >25 μg/ml are represented by *) |
| CN(C)[C@@H]1C(O)=C(C(N)=O)C(=O)[C@@]2(C#N)C(O)=C3C(=O)c4c(O)ccc(-c5ccc(C(C)(C)C)cc5)c4C[C@@]3(N)C[C@@]12N [QH] | ** (toxicities less than 25 μg/mL are represented by **) |
| CC(C)NCc1ccc(-c2ccc(O)c3c2[C@H](N)[C@]2(N)C(=C(O)[C@]4(C#N)C(=O)C(C(N)=O)=C(O)[C@@H](N(C)C)[C@]4(N)[C@H]2O)C3=O)o1 [QK] | * (toxicities greater than >25 μg/ml are represented by *) |
| COc1ccc(CNCc2cccc(F)c2)cc1-c1ccc(O)c2c1[C@H](N)[C@]1(N)C(=C(O)[C@]3(C#N)C(=O)C(C(N)=O)=C(O)[C@@H](N(C)C)[C@]3(N)[C@H]1O)C2=O [QL] | * (toxicities greater than >25 μg/ml are represented by *) |
| CN(C)[C@@H]1C(O)=C(C(N)=O)C(=O)[C@@]2(C#N)C(O)=C3C(=O)c4c(O)c(NC(=O)OCC(C)(C)C)cc(CN)c4C[C@@]3(N)C[C@@]12N [QM] | * (toxicities greater than >25 μg/ml are represented by *) |
